Laboratory results from patent US5079257A, “Indoloquinone compounds” (priority 1986, dated 1992).
Read-outs that look alike come from different tables or passages of the source.

Columns and labels:
Lung-NSCLC (LXFG) line = assay: Human tumour xenograft in nude mice: lung; assay type: in vivo; conditions: i.v. days 14 and 21, 4 and 6 mg/kg
Text: (§1) Based on the results obtained during the in vitro experiments indoloquinone E.O. 9 was selected for an extended in vivo study. The activity of this compound has been determined in four human tumour xenografts transplanted in nude mice.
(§2) The xenograft experiments have been carried by Dr. H. H. Fiebig of the University of Freiburg [Lung-NSCLC (LXGF) line, Renal line, Breast line; See: H. H. Fiebig et al., Behring Inst. Mitt., 74 343] and by Dr. E. Boven of the Free University Hospital Amsterdam [Ovarian (MRI-H-207) line; See: E. Boven et al., Cancer Res., 45, 86 (1985) and E. Boven et al., Eur. J. Clin. Oncol., 21, 1253 (1985)].
The tumour was transplanted s.c. and E.O. 9 was administrated i.v. on days 14 and 21 after transplantation at a dose of 4 and 6 mg/kg.

Renal line (RXF 423) = assay: Human tumour xenograft in nude mice: renal; assay type: in vivo; conditions: i.v. days 22 and 29, 4 and 6 mg/kg
Text: as §1, §2
The tumour was transplanted s.c. and E.O. 9 was administrated i.v. on days 22 and 29 after transplantation at a dose of 4 and 6 mg/kg.

Breast line = assay: Human tumour xenograft in nude mice: breast; assay type: in vivo; conditions: i.v. days 46 and 53, 4 and 6 mg/kg
Text: as §1, §2
The tumour was transplanted s.c. and E.O. 9 was administrated i.v. on days 46 and 53 after transplantation at a dose of 4 and 6 mg/kg.

Ovarian (MRI-H-207) line = assay type: in vivo, human; conditions: for T/C % / toxic deaths: days of treatment 0.7
Text: as §2
Mice: C57B1 athymic (nu/nu) female mice, 8 to 10 weeks of age were used for s.c. bilateral implantation of tumour fragments 2 mm diameter.
Treatment: E.O. 9 was dissolved in saline at a concentration of 0.5 mg/ml prior to administration. Drug doses and schedules were derived from studies in experimental murine tumour systems and from orientation studies in non-tumour-bearing nude mice. Treatment was started i.v. when tumours measured 50-150 mm^3. After randomization a group of 6-7 tumour-bearing mice was treated and a group of 5-6 tumour-bearing mice served as control.
Evaluation of efficacy: Tumours were measured twice weekly in three dimensions. Efficacy was expressed as the mean of relative tumour volume in treated animals vs. that in control animals×100 (% T/C). The optimal value was calculated within 35 days after the last injection. Toxic death (dead mice within two weeks after the last injection) were excluded from the evaluation.
MRI-H-207: An undifferentiated adenocarcinoma kindly provided by Dr. A. E. Bogden, Worcester, Mass, with a doubling time of 3-5 days.

Cn1c(/C=C/CO)c(CO)c2c1C(=O)C=C(N1CC1)C2=O [E.O. 9, 5-Aziridino-3-hydroxymethyl-1-methyl-2-[1H-indole-4,7-dione]prop-β-en-α-ol] was tested, and the optimal growth inhibition (Lung-NSCLC (LXFG) line) was 42%, the specific growth delay (Lung-NSCLC (LXFG) line) was 1.03 and the “growth inhibition” value (Renal line (RXF 423)) was “No significant growth inhibition”. The optimal growth inhibition (Breast line) was 51%, the T/C % (Ovarian (MRI-H-207) line; 5 mg/kg) was 3.8% and the toxic deaths (Ovarian (MRI-H-207) line; 5 mg/kg) was 0/7. For the same compound, the T/C % (Ovarian (MRI-H-207) line; 6 mg/kg) was 2.4%, the toxic deaths (Ovarian (MRI-H-207) line; 6 mg/kg) was 1/7 and the optimal growth inhibition (Ovarian (MRI-H-207) line; 5 and 6 mg/kg q8d×2) was 98%.
